From ChEMBL document CHEMBL1201862, “PubChem BioAssay data set” (2004)
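Results reflect a 48-hour exposure of cells in 96-well plates to compound at five concentrations. The concentration for 50% growth inhibition is given as GI50.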 The source made the active and inactive calls. Rule as the data show it: active = GI50 up to about 1.1 µM and inactive = higher.

How the values were obtained:
Assay in all cases: growth of human tumour cells (NCI), 48 h
HCC 2998 = tested on: HCC 2998
HCT-116 = tested on: HCT-116
IGROV-1 = tested on: IGROV-1
MOLT-4 = tested on: MOLT-4
Malme-3M = tested on: Malme-3M
NCI-H460 = tested on: NCI-H460
OVCAR-8 = tested on: OVCAR-8
RXF 393 = tested on: RXF 393
SF-539 = tested on: SF-539
SK-OV-3 = tested on: SK-OV-3
SN12C = tested on: SN12C
SNB-19 = tested on: SNB-19
SW-620 = tested on: SW-620
A498 = tested on: A498
CAKI-1 = tested on: CAKI-1
KM12 = tested on: KM12
COLO 205 = tested on: COLO 205

SMILES | GI50 (HCC 2998) | GI50 (HCT-116) | GI50 (IGROV-1) | GI50 (MOLT-4) | GI50 (Malme-3M) | GI50 (NCI-H460) | GI50 (OVCAR-8) | GI50 (RXF 393) | GI50 (SF-539) | GI50 (SK-OV-3) | GI50 (SN12C) | GI50 (SNB-19) | GI50 (SW-620) | GI50 (A498) | GI50 (CAKI-1) | GI50 (KM12) | GI50 (COLO 205)
Cc1cc2c(C)nn(Cc3ccc(Cl)cc3Cl)c2c(C#N)c1C | > 100 µM (inactive) | 69.7 µM (inactive) | > 100 µM (inactive) | > 100 µM (inactive) | > 100 µM (inactive) | 79.4 µM (inactive) | > 100 µM (inactive) | 67 µM (inactive) | > 100 µM (inactive) | > 100 µM (inactive) | > 100 µM (inactive) | > 100 µM (inactive) | > 100 µM (inactive) | – | – | – | –
COc1ccc(CN(CCN(C)C)c2ccccn2)cc1.Cn1c(=O)c2[nH]c(Br)nc2n(C)c1=O | – | – | > 100 µM (inactive) | > 100 µM (inactive) | > 100 µM (inactive) | – | > 100 µM (inactive) | – | > 100 µM (inactive) | > 100 µM (inactive) | > 100 µM (inactive) | > 100 µM (inactive) | > 100 µM (inactive) | > 100 µM (inactive) | > 100 µM (inactive) | > 100 µM (inactive) | –
O=C1OC(c2ccccc2)=N/C1=C/NC(Cc1c[nH]cn1)C(=O)O (configuration not stated) | > 100 µM (inactive) | > 100 µM (inactive) | > 100 µM (inactive) | > 100 µM (inactive) | > 100 µM (inactive) | > 100 µM (inactive) | > 100 µM (inactive) | > 100 µM (inactive) | > 100 µM (inactive) | > 100 µM (inactive) | > 100 µM (inactive) | > 100 µM (inactive) | > 100 µM (inactive) | > 100 µM (inactive) | – | – | > 100 µM (inactive)
CN1C(=O)C2C=CC1C1CCC2N(C)C1=O (configuration not stated) | > 100 µM (inactive) | > 100 µM (inactive) | > 100 µM (inactive) | > 100 µM (inactive) | > 100 µM (inactive) | – | > 100 µM (inactive) | > 100 µM (inactive) | > 100 µM (inactive) | > 100 µM (inactive) | > 100 µM (inactive) | > 100 µM (inactive) | > 100 µM (inactive) | > 100 µM (inactive) | > 100 µM (inactive) | > 100 µM (inactive) | > 100 µM (inactive)
COc1ccc2c(c1)c(Cc1c(C)n(C)c3ccc(OC)cc13)c(C)n2C | – | > 100 µM (inactive) | > 100 µM (inactive) | > 100 µM (inactive) | > 100 µM (inactive) | > 100 µM (inactive) | > 100 µM (inactive) | 47.8 µM (inactive) | > 100 µM (inactive) | > 100 µM (inactive) | > 100 µM (inactive) | > 100 µM (inactive) | > 100 µM (inactive) | > 100 µM (inactive) | > 100 µM (inactive) | > 100 µM (inactive) | > 100 µM (inactive)
O=C1CCC2(c3ccc(F)cc3)Nc3ncccc3N12 (configuration not stated) | > 100 µM (inactive) | – | > 100 µM (inactive) | > 100 µM (inactive) | > 100 µM (inactive) | > 100 µM (inactive) | > 100 µM (inactive) | > 100 µM (inactive) | > 100 µM (inactive) | – | > 100 µM (inactive) | – | > 100 µM (inactive) | > 100 µM (inactive) | > 100 µM (inactive) | > 100 µM (inactive) | > 100 µM (inactive)
O=C(NN1C(=O)C(Cl)C1c1c(O)ccc2ccccc12)c1ccccc1O (configuration not stated) | – | > 100 µM (inactive) | > 100 µM (inactive) | > 100 µM (inactive) | > 100 µM (inactive) | > 100 µM (inactive) | > 100 µM (inactive) | > 100 µM (inactive) | > 100 µM (inactive) | > 100 µM (inactive) | > 100 µM (inactive) | > 100 µM (inactive) | – | 8.45 µM (inactive) | – | > 100 µM (inactive) | –
CC12N=NNC1C(=O)NC2=O (configuration not stated) | > 100 µM (inactive) | > 100 µM (inactive) | > 100 µM (inactive) | > 100 µM (inactive) | – | > 100 µM (inactive) | > 100 µM (inactive) | – | > 100 µM (inactive) | > 100 µM (inactive) | > 100 µM (inactive) | > 100 µM (inactive) | > 100 µM (inactive) | 89.3 µM (inactive) | > 100 µM (inactive) | > 100 µM (inactive) | > 100 µM (inactive)
OCC12C3C4C1C1C2C3C41CO (configuration not stated) | > 100 µM (inactive) | – | > 100 µM (inactive) | > 100 µM (inactive) | > 100 µM (inactive) | > 100 µM (inactive) | > 100 µM (inactive) | – | > 100 µM (inactive) | > 100 µM (inactive) | > 100 µM (inactive) | > 100 µM (inactive) | > 100 µM (inactive) | > 100 µM (inactive) | > 100 µM (inactive) | – | > 100 µM (inactive)
CC1=C(O)C(=O)C2C(=O)C1C(C)C2c1ccc(Cl)cc1 (configuration not stated) | > 100 µM (inactive) | – | > 100 µM (inactive) | > 100 µM (inactive) | > 100 µM (inactive) | – | > 100 µM (inactive) | > 100 µM (inactive) | > 100 µM (inactive) | > 100 µM (inactive) | – | > 100 µM (inactive) | > 100 µM (inactive) | > 100 µM (inactive) | > 100 µM (inactive) | > 100 µM (inactive) | > 100 µM (inactive)
CCOC(=O)NC(=O)c1cn(CCOC(=O)NCCCCCCNC(=O)OCCn2cc(C(=O)NC(=O)OCC)c(=O)[nH]c2=O)c(=O)[nH]c1=O | > 100 µM (inactive) | > 100 µM (inactive) | > 100 µM (inactive) | > 100 µM (inactive) | > 100 µM (inactive) | > 100 µM (inactive) | > 100 µM (inactive) | > 100 µM (inactive) | – | > 100 µM (inactive) | > 100 µM (inactive) | > 100 µM (inactive) | > 100 µM (inactive) | > 100 µM (inactive) | > 100 µM (inactive) | > 100 µM (inactive) | > 100 µM (inactive)
COc1cccc2c1C(=O)c1c(O)c3c(c(O)c1C2=O)C[C@@](O)(C(=O)CO)CC3OC1CC(NCCOCC(OC(C)=O)OC(C)=O)C(O)C(C)O1 (some centres not stated) | < 0.01 µM (active) | – | < 0.01 µM (active) | < 0.01 µM (active) | < 0.01 µM (active) | < 0.01 µM (active) | < 0.01 µM (active) | < 0.01 µM (active) | < 0.01 µM (active) | < 0.01 µM (active) | < 0.01 µM (active) | 0.00782 µM (active) | < 0.01 µM (active) | < 0.01 µM (active) | 0.01 µM (active) | < 0.01 µM (active) | –
Nc1nc2[nH]cnc2c(=O)[nH]1 | – | > 100 µM (inactive) | > 100 µM (inactive) | – | > 100 µM (inactive) | > 100 µM (inactive) | > 100 µM (inactive) | > 100 µM (inactive) | > 100 µM (inactive) | > 100 µM (inactive) | > 100 µM (inactive) | – | > 100 µM (inactive) | > 100 µM (inactive) | > 100 µM (inactive) | > 100 µM (inactive) | > 100 µM (inactive)
CCCCCC/C=C1\CCC(CN2CCOCC2)C1=O (configuration not stated) | 19.2 µM (inactive) | 14.4 µM (inactive) | 19 µM (inactive) | 5.26 µM (inactive) | 16.3 µM (inactive) | 38.7 µM (inactive) | 16.8 µM (inactive) | – | 16.9 µM (inactive) | 35.8 µM (inactive) | 17.2 µM (inactive) | 18.6 µM (inactive) | 8.2 µM (inactive) | 18 µM (inactive) | 16.8 µM (inactive) | 7.64 µM (inactive) | 17.1 µM (inactive)
CCCCCCC(=O)C/C(=N/NC(N)=S)C(=O)NC1C2CC3CC(C2)CC1C3 (configuration not stated) | > 100 µM (inactive) | > 100 µM (inactive) | > 100 µM (inactive) | > 100 µM (inactive) | > 100 µM (inactive) | > 100 µM (inactive) | > 100 µM (inactive) | > 100 µM (inactive) | – | – | > 100 µM (inactive) | > 100 µM (inactive) | > 100 µM (inactive) | – | – | > 100 µM (inactive) | > 100 µM (inactive)
Cc1cc(=O)n(-c2cc3cccccc-3n2)[nH]1 | 12.1 µM (inactive) | 2.16 µM (inactive) | 2.78 µM (inactive) | 4.3 µM (inactive) | 3.76 µM (inactive) | 3.4 µM (inactive) | 5.53 µM (inactive) | 2.36 µM (inactive) | 5.47 µM (inactive) | 6.31 µM (inactive) | 5.74 µM (inactive) | 43.6 µM (inactive) | 3.73 µM (inactive) | 16.8 µM (inactive) | – | 5.38 µM (inactive) | 14.4 µM (inactive)
O=C1/C(=C/c2ccc(Cl)cc2)CCC1CCN1CCOCC1 (configuration not stated) | 46.9 µM (inactive) | 53 µM (inactive) | > 100 µM (inactive) | 26.1 µM (inactive) | > 100 µM (inactive) | 38.9 µM (inactive) | > 100 µM (inactive) | 47.9 µM (inactive) | > 100 µM (inactive) | – | 72.1 µM (inactive) | > 100 µM (inactive) | > 100 µM (inactive) | 61.1 µM (inactive) | 76.2 µM (inactive) | 40.8 µM (inactive) | –
NC1CCC[C@H]1O (some centres not stated) | > 100 µM (inactive) | > 100 µM (inactive) | > 100 µM (inactive) | > 100 µM (inactive) | > 100 µM (inactive) | > 100 µM (inactive) | > 100 µM (inactive) | > 100 µM (inactive) | > 100 µM (inactive) | > 100 µM (inactive) | > 100 µM (inactive) | > 100 µM (inactive) | > 100 µM (inactive) | > 100 µM (inactive) | – | > 100 µM (inactive) | > 100 µM (inactive)
O=C(CC1Sc2ccccc2NC1=O)Nc1cccc(Cl)c1 (configuration not stated) | 89.3 µM (inactive) | 68.5 µM (inactive) | 40.9 µM (inactive) | 15.9 µM (inactive) | 55.2 µM (inactive) | 38.5 µM (inactive) | 26.2 µM (inactive) | 33.3 µM (inactive) | 72.9 µM (inactive) | – | 48.2 µM (inactive) | 46.9 µM (inactive) | 34.4 µM (inactive) | 28.6 µM (inactive) | 33 µM (inactive) | – | –
